Where “and” joins values, the source holds several entries; their conditions need not be identical. Identical values can stand only once. Records with an inconclusive call do not appear.
Tested on: Lewis lung carcinoma i.m., BDF1 mice, T/C %
Assay: NCI In Vivo Anticancer Drug Screen. Data for tumor model Lewis Lung Carcinoma (intramuscular) in B6D2F1 (BDF1) mice
How it was run: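 Value is the ratio of a treated-group measurement (T) to the matching vehicle-control measurement (C), using either survival or tumour size in mice bearing transplanted tumours.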

O=[N+]([O-])c1cc(S(=O)(=O)OCC2CO2)ccc1Cl (stereo unspecified)
T/C (endpoint: mean tumor weight (est.), dose: 6.25 mg/kg/injection, schedule: Q01DX011 (ip), vehicle: saline with Tween-80, higher = larger tumour): 66 % of control | T/C (endpoint: mean tumor weight (est.), dose: 12.5 mg/kg/injection, schedule: Q01DX011 (ip), vehicle: saline with Tween-80, higher = larger tumour): 70 % of control | T/C (endpoint: mean tumor weight (est.), dose: 25.0 mg/kg/injection, schedule: Q01DX011 (ip), vehicle: saline with Tween-80, higher = larger tumour): 47 % of control | T/C (endpoint: median survival time, dose: 6.25 mg/kg/injection, schedule: Q01DX011 (ip), vehicle: saline with Tween-80, higher = longer survival): 100 % of control | T/C (endpoint: median survival time, dose: 12.5 mg/kg/injection, schedule: Q01DX011 (ip), vehicle: saline with Tween-80, higher = longer survival): 90 % of control | T/C (endpoint: median survival time, dose: 25.0 mg/kg/injection, schedule: Q01DX011 (ip), vehicle: saline with Tween-80, higher = longer survival): 101 % of control

N[C@@H](Cc1ccc(N(CCCl)CCCl)cc1)C(=O)O
T/C (endpoint: mean tumor weight, dose: 0.38 mg/kg/injection, schedule: Q01DX011 (ip), vehicle: other, higher = larger tumour): 55 % of control | T/C (endpoint: mean tumor weight, dose: 0.38 mg/kg/injection, schedule: Q01DX011 (ip), vehicle: saline, higher = larger tumour): 86 % of control | T/C (endpoint: mean tumor weight, dose: 0.75 mg/kg/injection, schedule: Q01DX011 (ip), vehicle: other, higher = larger tumour): 48 % of control | T/C (endpoint: mean tumor weight, dose: 0.75 mg/kg/injection, schedule: Q01DX011 (ip), vehicle: saline, higher = larger tumour): 77 % of control | T/C (endpoint: mean tumor weight, dose: 1.5 mg/kg/injection, schedule: Q01DX011 (ip), vehicle: other, higher = larger tumour): 69 % of control | T/C (endpoint: mean tumor weight, dose: 3.0 mg/kg/injection, schedule: Q01DX011 (ip), vehicle: other, higher = larger tumour): 29 % of control | T/C (endpoint: mean tumor weight, dose: 3.0 mg/kg/injection, schedule: Q01DX011 (ip), vehicle: saline, higher = larger tumour): 47 % of control and 59 % of control | T/C (endpoint: median survival time, dose: 0.38 mg/kg/injection, schedule: Q01DX011 (ip), vehicle: other, higher = longer survival): 111 % of control | T/C (endpoint: median survival time, dose: 0.38 mg/kg/injection, schedule: Q01DX011 (ip), vehicle: saline, higher = longer survival): 105 % of control and 112 % of control | T/C (endpoint: median survival time, dose: 0.6 mg/kg/injection, schedule: Q01DX011 (ip), vehicle: saline, higher = longer survival): 104 % of control and 116 % of control | T/C (endpoint: median survival time, dose: 0.75 mg/kg/injection, schedule: Q01DX011 (ip), vehicle: other, higher = longer survival): 118 % of control | T/C (endpoint: median survival time, dose: 0.75 mg/kg/injection, schedule: Q01DX011 (ip), vehicle: saline, higher = longer survival): 110 % of control and 112 % of control and 120 % of control | T/C (endpoint: median survival time, dose: 1.2 mg/kg/injection, schedule: Q01DX011 (ip), vehicle: saline, higher = longer survival): 108 % of control | T/C (endpoint: median survival time, dose: 1.5 mg/kg/injection, schedule: Q01DX011 (ip), vehicle: other, higher = longer survival): 101 % of control | T/C (endpoint: median survival time, dose: 1.5 mg/kg/injection, schedule: Q01DX011 (ip), vehicle: saline, higher = longer survival): 91 % of control | T/C (endpoint: median survival time, dose: 2.5 mg/kg/injection, schedule: Q01DX011 (ip), vehicle: saline, higher = longer survival): 103 % of control | T/C (endpoint: median survival time, dose: 3.24 mg/kg/injection, schedule: Q01DX001 (ip), vehicle: saline, higher = longer survival): 108 % of control | T/C (endpoint: median survival time, dose: 5.4 mg/kg/injection, schedule: Q01DX001 (ip), vehicle: saline, higher = longer survival): 119 % of control

CC(=O)n1cc(F)c(=O)[nH]c1=O
T/C (endpoint: median survival time, dose: 6.0 mg/kg/injection, schedule: Q01DX011 (ip), vehicle: saline, higher = longer survival): 98 % of control | T/C (endpoint: median survival time, dose: 12.0 mg/kg/injection, schedule: Q01DX011 (ip), vehicle: saline, higher = longer survival): 111 % of control | T/C (endpoint: median survival time, dose: 24.0 mg/kg/injection, schedule: Q01DX011 (ip), vehicle: saline, higher = longer survival): 109 % of control

CCOC(=O)c1nc(C)[nH]c(=O)c1C
T/C (endpoint: median survival time, dose: 4.0 mg/kg/injection, schedule: Q01DX009 (ip), vehicle: water, higher = longer survival): 94 % of control | T/C (endpoint: median survival time, dose: 8.0 mg/kg/injection, schedule: Q01DX009 (ip), vehicle: water, higher = longer survival): 109 % of control | T/C (endpoint: median survival time, dose: 16.0 mg/kg/injection, schedule: Q01DX009 (ip), vehicle: water, higher = longer survival): 104 % of control | T/C (endpoint: median survival time, dose: 64.0 mg/kg/injection, schedule: Q01DX009 (ip), vehicle: water, higher = longer survival): 100 % of control

CC[n+]1c(-c2ccccc2)c2cc(N)ccc2c2ccc(N)cc21
T/C (endpoint: median survival time, dose: 0.25 mg/kg/injection, schedule: Q01DX011 (ip), vehicle: steriod suspending solution, higher = longer survival): 92 % of control | T/C (endpoint: median survival time, dose: 0.5 mg/kg/injection, schedule: Q01DX011 (ip), vehicle: steriod suspending solution, higher = longer survival): 107 % of control | T/C (endpoint: median survival time, dose: 1.0 mg/kg/injection, schedule: Q01DX011 (ip), vehicle: steriod suspending solution, higher = longer survival): 100 % of control | T/C (endpoint: median survival time, dose: 2.0 mg/kg/injection, schedule: Q01DX011 (ip), vehicle: steriod suspending solution, higher = longer survival): 117 % of control | T/C (endpoint: median survival time, dose: 4.0 mg/kg/injection, schedule: Q01DX011 (ip), vehicle: steriod suspending solution, higher = longer survival): 96 % of control | T/C (endpoint: median tumor weight (est.), dose: 0.25 mg/kg/injection, schedule: Q01DX011 (ip), vehicle: steriod suspending solution, higher = larger tumour): 90 % of control | T/C (endpoint: median tumor weight (est.), dose: 0.5 mg/kg/injection, schedule: Q01DX011 (ip), vehicle: steriod suspending solution, higher = larger tumour): 95 % of control | T/C (endpoint: median tumor weight (est.), dose: 1.0 mg/kg/injection, schedule: Q01DX011 (ip), vehicle: steriod suspending solution, higher = larger tumour): 90 % of control | T/C (endpoint: median tumor weight (est.), dose: 2.0 mg/kg/injection, schedule: Q01DX011 (ip), vehicle: steriod suspending solution, higher = larger tumour): 77 % of control | T/C (endpoint: median tumor weight (est.), dose: 4.0 mg/kg/injection, schedule: Q01DX011 (ip), vehicle: steriod suspending solution, higher = larger tumour): 73 % of control
